The source of these data is US20230165788A1, “MULTI-DRUG FORMULATIONS FOR SUBCUTANEOUS BIODEGRADABLE RESERVOIR DEVICE” (Research Triangle Institute, priority 2020, published 2023).

Molecules are shown by their SMILES.

A short description of data set [1]: Evaluation of Elvitegravir for use in the device: solubility and dose. In kind it is physicochemical. From the text: (§1) The active agent formulation includes more than one active agent and an excipient. One or more of the more than one active agent can be one or a combination of a therapeutic, a preventative, a prophylactic and/or a contraceptive. […] Not all active agents are amenable for use in the described device. Active agents having sufficient aqueous solubility and stability and dosing requirements and that are amenable to size parameters of the device are suitable for use in the described device. Moreover, in embodiments, the active agents retain a high level of purity that is both safe and efficacious to the user throughout the intended dosage duration and are not susceptible to immediate degradation caused by environmental contents (e.g., body fluids, physiological temperature). In additional embodiments, the solubility of active agents within potential excipients can range from 0.1-50 mg/mL.

For the next data set, the system named is HIV. In words: Evaluation of Elvitegravir for use in the device: potency.
From the text: as §1

The conditions of data set [2]: non-polymeric refillable implant, rhesus macaques; cited from earlier work.
For data set [3] the following is noted: beagle dogs, cited from earlier work.

As to `COc1cc2c(cc1Cc1cccc(Cl)c1F)c(=O)c(C(=O)O)cn2[C@H](CO)C(C)C` [Elvitegravir], the solubility result in data set [1] is given as “relatively low solubility”. Besides, in the data set with HIV, the potency entry is “suboptimal potency”.

Take `Nc1nc(=O)n([C@@H]2CS[C@H](CO)O2)cc1F` [FTC, emtricitabine]: in data set [2], the “period of sustained levels of FTC-triphosphate (FTC-TP)” value is listed as 28 days.

Take `CC(C)OC(=O)[C@H](C)N[P@](=O)(CO[C@H](C)Cn1cnc2c(N)ncnc21)Oc1ccccc1` [TAF, tenofovir alafenamide]: the “duration of drug delivery” value in data set [3] (subdermal silicone implant with PVA-coated channels) was 40 days. Also, the adverse events entry in data set [3] (subdermal silicone implant) is reported as “without observed adverse events”. The “period of sustained levels of tenofovir diphosphate (TFV-DP) in PBMCs” value in data set [2] is 83 days.
